Data: patent publication EP4631490A1, “ACTIVATOR AND SKIN CONDITION IMPROVING AGENT” (Nippon Shokubai Co., Ltd., priority 2022, dated 2024)

Assays:
[1] = Measurement of critical micelle concentration (surface tension, platinum suspension plate method); assay type: physicochemical; details: critical micelle concentration from surface tension measurement
Experimental: A highly functional surface tensiometer (DY-500 (available from Kyowa Interface Science Co., Ltd.) was used to perform surface tension measurement by a platinum suspension plate method, and critical micelle concentrations (CMCs) of the STL C14, the STL C16, the STL C18, sodium lauryl sulfate, sodium deoxycholate, and sodium caprylate were calculated in accordance with a common method. The results are described in Table 4.

[2] = Foam property evaluation (dynamic foam analyzer); assay type: physicochemical; details: 0.5% aqueous solution, pH 8.0, water hardness 20°dH, 25°C; for Creaminess of foam Bubble area after 20 seconds: 20 seconds after stirring was stopped; for Creaminess of foam Bubble area after 600 seconds: 600 seconds after stirring was stopped; for Foam retention evaluation Foam change rate: smaller = better foam retention
Experimental: Thereafter, an average bubble area of foams was determined based on the images, and creaminess (foamability) of the foams was evaluated according to the following criteria. Note that the creaminess of the foams is characterized by having a small final bubble diameter (measured as average bubble area). The foams generated from the aqueous solutions containing the STL C14, the STL C16, or the STL C18 had small bubble areas, and thus it was considered that creamy foams could be formed. • ⊚ (good): The bubble area was 20000 µm^2 or less. • ∘ (passed): The bubble area was 20001 µm^2 or more and 30000 µm^2 or less. • Δ (slightly poor): The bubble area was 30001 µm^2 or more and 40000 µm^2 or less. • × (poor): The bubble area was 40001 µm^2 or more. A foam change rate was calculated using the following equation. It can be determined that the smaller the foam change rate is, the better the foam retention is, in other words, the better the foaming durability is. […]

[3] = test system: L929 mouse fibroblasts; details: values of L. Vian et al., Toxicol in vitro, 9(2), 185-190, 1995; cited from earlier work
[4] = test system: Zein powder; test: Protein denaturation test (dissolution of Zein powder); details: 0.5% aqueous solution, pH 8.0; 0.03 g Zein powder in 10 mL; room temperature, 2 hours; index of skin irritation
Experimental: 0.03 g of Zein powder (FUJIFILM Wako Pure Chemical Corporation) was added to the aqueous solutions of the STL. After stirring at room temperature and 1200 rpm for 2 hours, the Zein powder-added solutions were transferred to centrifuge tubes, respectively, and centrifuged at 6200 rpm for 10 seconds to precipitate and remove undissolved zein powder. The protein concentrations in the solutions were measured using a microvolume spectrophotometer NanoDrop (NanoDrop Technologies).
The protein denaturation test was performed in the same manner using sodium lauryl sulfate, sodium deoxycholate, and sodium caprylate.

Row | Molecule | Surface activating ability evaluation CMC [1] [mM] | Creaminess of foam Bubble area after 20 seconds [2] | Creaminess of foam Bubble area after 600 seconds [2] | Foam retention evaluation Foam change rate [2] [%] | Cytotoxicity evaluation IC50 [3] [ppm] | Protein denaturation ability evaluation Protein dissolution concentration [4] [µg/mL]
1 | CCCCCCCC(=O)[O-].[Na+] [Sodium caprylate, sodium caprylate] | 300 | ○ | Δ (Δ (slightly poor): The bubble area was 30001 µm^2 or more and 40000 µm^2 or less.) | 1.09 | 887 | –
2 | CCCCCCCCCCCCOS(=O)(=O)[O-].[Na+] [Sodium lauryl sulfate, sodium lauryl sulfate] | 8 | ⊚ (⊚ (good): The bubble area was 20000 µm^2 or less.) | Δ (Δ (slightly poor): The bubble area was 30001 µm^2 or more and 40000 µm^2 or less.) | 2.81 | 86 | –
3 | sodium deoxycholate | 6 | ⊚ (⊚ (good): The bubble area was 20000 µm^2 or less.) | × (× (poor): The bubble area was 40001 µm^2 or more.) | 2.62 | 90 | 430
